Experimental data reported in ChEMBL document CHEMBL3044873, “Aryl N, N-Dimethylcarbamates, Synergists for Organophosphorus Insecticides against Organophos-phorusresistant Rice Stem Borers” (J Pestic Sci, 1990).

These compounds were tested on Chilo suppressalis (assay: Potentiation of fenitrothion-induced insecticidal activity against OP-resistant Chilo suppressalis Hata-f (rice stem borer) assessed as synergistic ratio at 1:10 fenitrothion to compound ratio relative to fenitrothion alone).
Assay type: functional
In the case of `COC(=O)c1ccc(OC(=O)N(C)C)cc1` [METHYL 4-(DIMETHYLCARBAMOYLOXY)BENZOATE], the “fold change (FC)” value is reported as 6.3. In the case of `CCNC(=O)Oc1ccc(Cl)c(C)c1`, the “fold change (FC)” value is reported as 1.2. For `CN(C)C(=O)Oc1ccc([N+](=O)[O-])c(Cl)c1`, the “fold change (FC)” value was 6.3. `Cc1cc(OC(=O)N(C)C)cc(C)c1Cl` was tested, and the “fold change (FC)” value was 11. With `CN(C)C(=O)Oc1nc(Cl)c(Cl)cc1Cl` the “fold change (FC)” value was 4.1. In the case of `CN(C)C(=S)Oc1ccc([N+](=O)[O-])cc1`, the “fold change (FC)” value is reported as 1.6. With `Cc1ccc(OC(=O)N(C)C)c([N+](=O)[O-])c1` the “fold change (FC)” value was 5.8. `Cc1cc(C)cc(OC(=O)N(C)C)c1` [3,5-DIMETHYLPHENYL DIMETHYLCARBAMATE] was tested, and the “fold change (FC)” value was 5.8. For `CSc1nc(C)cc(OC(=O)N(C)C)n1`, the “fold change (FC)” value was 14. With `CSc1ccc(OC(=S)N(C)C)cc1C` the “fold change (FC)” value was 4.9. For `Cc1cc(OC(=O)N(C)C)nc(C)n1`, the “fold change (FC)” value was 11. With `CN(C)C(=O)Oc1ccc(Cl)cc1` [4-CHLOROPHENYL DIMETHYLCARBAMATE] the “fold change (FC)” value was 10. In the case of `CCNC(=O)Oc1ccc(SC)cc1` [4-(METHYLTHIO)PHENYL ETHYLCARBAMATE], the “fold change (FC)” value is reported as 1.4. In the case of `CNC(=O)Oc1ccc(Cl)c(C)c1`, the “fold change (FC)” value is reported as 1.1. For `N#Cc1ccc(OC(=O)Nc2ccccc2)cc1` [4-CYANOPHENYL PHENYLCARBAMATE], the “fold change (FC)” value was 0.8. `CC(=O)c1ccc(OC(=O)N(C)C)cc1` [4-ACETYLPHENYL DIMETHYLCARBAMATE] was tested, and the “fold change (FC)” value was 6.9. With `Cc1cc(OC(=O)N(C)C)nc(C(C)C)n1` the “fold change (FC)” value was 15. `CN(C)C(=O)Oc1ccccc1Cl` [2-CHLOROPHENYL DIMETHYLCARBAMATE] was tested, and the “fold change (FC)” value was 5.1. In the case of `Cc1cc(OC(=O)Nc2ccccc2)ccc1Cl`, the “fold change (FC)” value is reported as 0.8. `CCN(CC)C(=O)Oc1cccc2ccccc12` was tested, and the “fold change (FC)” value was 2.5. In the case of `Cc1cc(OC(=O)N(C)C)nc(-c2ccccc2)n1`, the “fold change (FC)” value is reported as 13. `CN(C)C(=O)Oc1ccccn1` was tested, and the “fold change (FC)” value was 11. For `CN(C)C(=O)OCc1ccccc1` [BENZYL DIMETHYLCARBAMATE], the “fold change (FC)” value was 0.9. For `CN(C)C(=O)Oc1ccccc1` [PHENYL DIMETHYLCARBAMATE], the “fold change (FC)” value was 5.8. For `CN(C)C(=O)Sc1ccc([N+](=O)[O-])cc1`, the “fold change (FC)” value was 1.9. In the case of `Cc1ccc(OC(=O)N(C)C)cc1` [P-TOLYL DIMETHYLCARBAMATE], the “fold change (FC)” value is reported as 8.1. `CN(C)C(=O)Oc1cc(Cl)c(Cl)cc1Cl` [2,4,5-TRICHLOROPHENYL DIMETHYLCARBAMATE] was tested, and the “fold change (FC)” value was 5.8. For `CN(C)C(=O)Oc1ccc([N+](=O)[O-])cc1Cl`, the “fold change (FC)” value was 2.4. With `CN(C)C(=O)Oc1cccc(C(C)(C)C)c1` the “fold change (FC)” value was 3.5. In the case of `CCN(CC)C(=O)Oc1cc(C)nc(N(CC)CC)n1`, the “fold change (FC)” value is reported as 8.7. `CN(C)C(=S)Oc1ccc(C#N)cc1` was tested, and the “fold change (FC)” value was 2.1. With `Cc1cccc(OC(=O)N(C)C)c1` [M-TOLYL DIMETHYLCARBAMATE] the “fold change (FC)” value was 9.2. In the case of `CCN(CC)C(=O)Oc1ccc(C#N)cc1` [4-CYANOPHENYL DIETHYLCARBAMATE], the “fold change (FC)” value is reported as 1.7. For `CN(C)C(=O)Oc1cccc([N+](=O)[O-])c1` [3-NITROPHENYL DIMETHYLCARBAMATE], the “fold change (FC)” value was 8.2. With `CN(C)C(=O)OCc1ccc([N+](=O)[O-])cc1` [4-NITROBENZYL DIMETHYLCARBAMATE] the “fold change (FC)” value was 1. For `CCN(CC)C(=O)Oc1ccc(SC)cc1` [4-(METHYLTHIO)PHENYL DIETHYLCARBAMATE], the “fold change (FC)” value was 2.9. In the case of `CN(C)C(=O)Oc1cccc2cccnc12`, the “fold change (FC)” value is reported as 4.6. With `Cc1cc(OC(=S)N(C)C)ccc1Cl` the “fold change (FC)” value was 4.1. For `CC(C)c1cccc(OC(=O)N(C)C)c1` [3-ISOPROPYLPHENYL DIMETHYLCARBAMATE], the “fold change (FC)” value was 4.3. `CN(C)C(=O)Oc1ccc([N+](=O)[O-])c(C(F)(F)F)c1` was tested, and the “fold change (FC)” value was 8. `O=C(Nc1ccccc1)Oc1ccc([N+](=O)[O-])cc1` [4-NITROPHENYL PHENYLCARBAMATE] was tested, and the “fold change (FC)” value was 0.9. With `CN(C)C(=O)Oc1ccc2ccccc2n1` the “fold change (FC)” value was 15. In the case of `CCNC(=O)Oc1ccc(SC)c(C)c1`, the “fold change (FC)” value is reported as 0.6. With `CCC(C)c1ccccc1OC(=O)N(C)C` (stereo unspecified) the “fold change (FC)” value was 1.8. In the case of `CSc1ccc(OC(=O)N(C)C)cc1` [4-(METHYLTHIO)PHENYL DIMETHYLCARBAMATE], the “fold change (FC)” value is reported as 16. `Cc1cc(OC(=O)N(C)C)ccc1Cl` was tested, and the “fold change (FC)” value was 12. With `CCN(CC)C(=O)Oc1ccc(SC)c(C)c1` the “fold change (FC)” value was 4.6. With `CN(C)CCOC(=O)N(C)C` [2-(DIMETHYLAMINO)ETHYL DIMETHYLCARBAMATE] the “fold change (FC)” value was 1. `O=C(Nc1ccccc1)Oc1cccc2ccccc12` was tested, and the “fold change (FC)” value was 1. For `CN(C)C(=O)Oc1ccc2ccccc2c1` [NAPHTHALEN-2-YL DIMETHYLCARBAMATE], the “fold change (FC)” value was 16. `CCN(CC)C(=O)Oc1cc(C)nc(N(C)C)n1` was tested, and the “fold change (FC)” value was 13. In the case of `CNC(=O)Oc1ccc([N+](=O)[O-])c(C)c1`, the “fold change (FC)” value is reported as 1.1. In the case of `Cc1nc(N(C)C)nc(OC(=O)N(C)C)c1C` [PIRIMICARB], the “fold change (FC)” value is reported as 6.3. With `Cc1c(OC(=O)N(C)C)cc([N+](=O)[O-])cc1[N+](=O)[O-]` the “fold change (FC)” value was 1.1. `CN(C)C(=O)Oc1ccc(-c2ccccc2)cc1` was tested, and the “fold change (FC)” value was 2. For `CN(C)C(=O)Oc1ccc([N+](=O)[O-])cc1` [4-NITROPHENYL DIMETHYLCARBAMATE], the “fold change (FC)” value was 10. With `CN(C)C(=O)Oc1ccccc1[N+](=O)[O-]` [2-NITROPHENYL DIMETHYLCARBAMATE] the “fold change (FC)” value was 5.8. In the case of `Cc1ccc([N+](=O)[O-])c(OC(=O)N(C)C)c1`, the “fold change (FC)” value is reported as 3.1. In the case of `CNC(=O)Oc1ccc([N+](=O)[O-])cc1` [4-NITROPHENYL METHYLCARBAMATE], the “fold change (FC)” value is reported as 0.9. `CN(C)C(=O)Oc1cccc(Cl)c1` [3-CHLOROPHENYL DIMETHYLCARBAMATE] was tested, and the “fold change (FC)” value was 11. In the case of `CN(C)C(=O)Oc1ccc([N+](=O)[O-])cc1[N+](=O)[O-]` [2,4-DINITROPHENYL DIMETHYLCARBAMATE], the “fold change (FC)” value is reported as 0.8. For `CNC(=O)Oc1ccc(SC)c(C)c1`, the “fold change (FC)” value was 0.8. For `CN(C)C(=O)Oc1ccc(C#N)cc1` [4-CYANOPHENYL DIMETHYLCARBAMATE], the “fold change (FC)” value was 14. With `CCNC(=O)Oc1ccc([N+](=O)[O-])cc1` [4-NITROPHENYL ETHYLCARBAMATE] the “fold change (FC)” value was 1.2. With `CN(C)C(=O)SCc1ccccc1` [S-BENZYL DIMETHYLCARBAMOTHIOATE] the “fold change (FC)” value was 1. For `CCN(CC)C(=O)Oc1ccc([N+](=O)[O-])cc1` [4-NITROPHENYL DIETHYLCARBAMATE], the “fold change (FC)” value was 3.3. `CN(C)C(=O)Oc1cccc2ccccc12` was tested, and the “fold change (FC)” value was 13. `Cc1cc(OC(=O)N(C)C)nc(Nc2ccccc2)n1` was tested, and the “fold change (FC)” value was 2.8. In the case of `CN(C)C(=O)Sc1ccc(Cl)cc1`, the “fold change (FC)” value is reported as 1.9. For `COc1nc(C)cc(OC(=O)N(C)C)n1`, the “fold change (FC)” value was 13. `Cc1cc(OC(=S)N(C)C)ccc1[N+](=O)[O-]` was tested, and the “fold change (FC)” value was 1.3. `Cc1cc(OC(=O)Nc2ccccc2)ccc1[N+](=O)[O-]` was tested, and the “fold change (FC)” value was 0.9. For `COc1ccc(OC(=O)N(C)C)cc1` [4-METHOXYPHENYL DIMETHYLCARBAMATE], the “fold change (FC)” value was 3. In the case of `Cc1ccc(OC(=O)N(C)C)cc1C` [3,4-DIMETHYLPHENYL DIMETHYLCARBAMATE], the “fold change (FC)” value is reported as 9.5. `CC(C)OC(=O)c1ccc(OC(=O)N(C)C)cc1` [ISOPROPYL 4-(DIMETHYLCARBAMOYLOXY)BENZOATE] was tested, and the “fold change (FC)” value was 0.9. `CSc1ccc(OC(=O)Nc2ccccc2)cc1C` was tested, and the “fold change (FC)” value was 0.7.
